Measurements: patent US20130252950A1, “TARGETING MTOR SUBSTRATES IN TREATING PROLIFERATIVE DISEASES” (President and Fellows of Harvard College, priority 2010, published 2013)

Experiments:
[1] = test system: Grb10 protein in TSC2−/− cells; assay: Immunoblot of Grb10 protein level after long-term treatment; type: cell-based, mouse; details: TSC2−/− MEFs stably expressing HA-tagged Grb10-DD, long-term 20 nM rapamycin
From the text: (§1) FIG. 3. mTOR-mediated Grb10 phosphorylation is important for Grb10 stability. (A) Grb10 interacts with raptor, but not rictor. HA-tagged Grb10 was co-transfected with Myc-raptor or Myc-rictor in HEK293T cells. Cells were lysed in lysis buffer A, and the lysates were subjected to immunoprecipitation using anti-HA antibody conjugated beads. Raptor and rictor were probed with an antibody against the Myc-tag. (B) Grb10 is phosphorylated by mTOR in vitro. […] Phosphorylation of Grb10 at S501/S503 was detected by using the phospho-specific antibody against these two sites. (C) Long-term rapamycin treatment leads to Grb10 degradation in TSC2−/− cells. Note that Grb10 protein expression levels inversely correlated with Akt activity. Grb10 is highly overexpressed in TSC2−/− cells. mRNA level was determined using quantitative RT-PCR based on three biological replicate experiments. (D) Knockdown of raptor in TSC2−/− cells decreased Grb10 protein level. Cells were starved overnight and the lysates were probed with the antibodies indicated. (E) Grb10 is highly overexpressed in TSC2−/− cells. (F) S501A/S503A mutant is unstable compared with the wild-type or the S501D/S503D mutant. The same amount of DNA was transfected into HEK293T cells. […] Endogenous Grb10 was detected using an antibody that preferentially recognizes mouse Grb10 whereas the Grb10 DD mutant (of human origin) was detected using an anti-HA antibody.
FIG. 9. Phosphorylation of Grb10 at S501/S503 regulates its stability. […] Preincubation of the antibody with the […] completely eliminated the immunoreactivity. (B) Further validation of the phospho-specific antibody raised against the Grb10 S501/S503 sites. Grb10 WT, S501A/S503A (AA) and S501D/S503D (DD) were transfected into HEK239T cells and were probed with the antibody. Note that this antibody detected wild type (WT) Grb10, but neither of the mutant proteins. (C) Treatment of TSC2−/− cells with various mTOR kinase inhibitors led to Grb10 degradation. […] (E) Grb10 is highly overexpressed in TSC1−/− cells compared with their wild-type counterparts. (F) rapamycin treatment of TSC2−/− cells stably expressing wild type (WT) Grb10 led to lower levels of both endogenous and exogenous Grb10.
In addition, long-term treatment with mTOR kinase inhibitors, including LY-294002, NVP-BEZ235, torin and pp 242 all led to reduced Grb10 protein expression (FIG. 9C). Similar results were obtained in TSC1−/− MEFs (FIG. 9D). In contrast, we found Grb10 was highly overexpressed in TSC2−/− and TSC1−/− MEFs compared with their wild-type counterparts (FIGS. 3E and 9E), correlating with elevated mTORC1 activity in these cells. […]

[2] = test system: Grb10 mRNA in TSC2−/− cells; assay: Quantitative RT-PCR of Grb10 mRNA; type: cell-based, mouse; details: three biological replicates
From the text: as §1, with “Note that Grb10 protein expression levels inversely correlated with Akt activity.” left out, “experiments.” for “experiments. (D) Knockdown of raptor in TSC2−/− cells decreased Grb10 protein level. Cells were starved overnight and the lysates were probed with the antibodies indicated. (E) Grb10 is highly overexpressed in TSC2−/− cells. (F) S501A/S503A mutant is unstable compared with the wild-type or the S501D/S503D mutant. The same amount of DNA was transfected into HEK293T cells.”, “antibody. […]” for “antibody.”
Total cellular RNA was purified from cultured cells using the RNeasy mini kit (Qiagen) following the manufacturer's protocol. For quantitative real-time PCR (qRT-PCR), RNA was reverse-transcribed using the High-Capacity cDNA Reverse Transcription Kit (Applied Biosystems) according to the manufacturer's instructions. The resulting cDNA was analyzed by qRT-PCR using the QuantiTect SYBR Green qPCR System (Qiagen). […]

CO[C@H]1C[C@@H]2CC[C@@H](C)[C@@](O)(O2)C(=O)C(=O)N2CCCC[C@H]2C(=O)O[C@H]([C@H](C)C[C@@H]2CC[C@@H](O)[C@H](OC)C2)CC(=O)[C@H](C)/C=C(\C)[C@@H](O)[C@@H](OC)C(=O)[C@H](C)C[C@H](C)/C=C/C=C/C=C/1C [rapamycin]
Grb10 S501D/S503D (DD) mutant protein levels [1]: no effect
decrease in Grb10 mRNA levels after long-term rapamycin [2]: approximately 2 fold
